Laboratory results as given in ChEMBL document CHEMBL5331124, “Degradation of Hexokinase 2 Blocks Glycolysis and Induces GSDME-Dependent Pyroptosis to Amplify Immunogenic Cell Death for Breast Cancer Therapy” (J Med Chem, 2023).
Active and inactive are the calls of the source. No cut-off for these calls is given here.

How the values were obtained:
[1] = biological target: T1, Hexokinase-2 (Homo sapiens) (UniProt P52789); experiment: Induction of HK2 degradation in human MDA-MB-231 cells assessed as increase in VDAC expression at 20 uM measured for 36 hrs by Western blot analysis; assay type: cell-based
T1 sequence (whole entry): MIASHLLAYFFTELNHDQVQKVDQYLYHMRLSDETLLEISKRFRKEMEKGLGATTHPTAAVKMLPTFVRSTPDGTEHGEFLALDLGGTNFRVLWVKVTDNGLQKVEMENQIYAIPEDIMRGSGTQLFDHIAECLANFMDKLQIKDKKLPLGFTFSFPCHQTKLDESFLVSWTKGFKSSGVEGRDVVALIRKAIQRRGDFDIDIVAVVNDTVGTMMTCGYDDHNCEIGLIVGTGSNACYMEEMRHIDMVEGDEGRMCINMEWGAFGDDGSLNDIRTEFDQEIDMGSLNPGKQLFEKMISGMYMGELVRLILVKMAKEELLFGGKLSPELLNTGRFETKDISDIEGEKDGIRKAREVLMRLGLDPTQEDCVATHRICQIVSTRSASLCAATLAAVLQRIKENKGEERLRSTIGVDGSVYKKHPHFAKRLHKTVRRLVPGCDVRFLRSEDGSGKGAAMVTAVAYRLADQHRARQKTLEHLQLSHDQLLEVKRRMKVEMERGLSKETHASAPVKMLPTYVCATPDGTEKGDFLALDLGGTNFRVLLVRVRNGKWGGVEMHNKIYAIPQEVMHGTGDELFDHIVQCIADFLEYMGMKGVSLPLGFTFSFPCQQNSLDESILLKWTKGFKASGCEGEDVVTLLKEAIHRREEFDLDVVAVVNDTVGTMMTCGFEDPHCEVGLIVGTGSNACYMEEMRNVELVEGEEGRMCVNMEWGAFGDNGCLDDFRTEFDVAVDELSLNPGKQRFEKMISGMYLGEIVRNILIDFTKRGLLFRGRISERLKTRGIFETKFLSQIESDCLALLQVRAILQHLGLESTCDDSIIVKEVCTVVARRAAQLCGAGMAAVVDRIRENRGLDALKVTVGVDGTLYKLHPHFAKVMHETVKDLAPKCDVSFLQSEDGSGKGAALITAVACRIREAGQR

[2] = test system: MDA-MB-231; experiment: Antitumor activity against human MDA-MB-231 cells xenografted in BALB/c nude mouse assessed as increase in N-terminal GSDME level at 50 mg/kg, ip measured after 28 days; assay type: functional, organism-based; details: time 28.0 day
[3] = biological target: T2, Hexokinase-2 (Mus musculus) (UniProt O08528); experiment: Induction of HK2 degradation in mouse 4T1 cells upto 200 uM measured at 12 to 36 hrs; assay type: cell-based; details: time 12-36 hrs
T2 sequence (whole entry): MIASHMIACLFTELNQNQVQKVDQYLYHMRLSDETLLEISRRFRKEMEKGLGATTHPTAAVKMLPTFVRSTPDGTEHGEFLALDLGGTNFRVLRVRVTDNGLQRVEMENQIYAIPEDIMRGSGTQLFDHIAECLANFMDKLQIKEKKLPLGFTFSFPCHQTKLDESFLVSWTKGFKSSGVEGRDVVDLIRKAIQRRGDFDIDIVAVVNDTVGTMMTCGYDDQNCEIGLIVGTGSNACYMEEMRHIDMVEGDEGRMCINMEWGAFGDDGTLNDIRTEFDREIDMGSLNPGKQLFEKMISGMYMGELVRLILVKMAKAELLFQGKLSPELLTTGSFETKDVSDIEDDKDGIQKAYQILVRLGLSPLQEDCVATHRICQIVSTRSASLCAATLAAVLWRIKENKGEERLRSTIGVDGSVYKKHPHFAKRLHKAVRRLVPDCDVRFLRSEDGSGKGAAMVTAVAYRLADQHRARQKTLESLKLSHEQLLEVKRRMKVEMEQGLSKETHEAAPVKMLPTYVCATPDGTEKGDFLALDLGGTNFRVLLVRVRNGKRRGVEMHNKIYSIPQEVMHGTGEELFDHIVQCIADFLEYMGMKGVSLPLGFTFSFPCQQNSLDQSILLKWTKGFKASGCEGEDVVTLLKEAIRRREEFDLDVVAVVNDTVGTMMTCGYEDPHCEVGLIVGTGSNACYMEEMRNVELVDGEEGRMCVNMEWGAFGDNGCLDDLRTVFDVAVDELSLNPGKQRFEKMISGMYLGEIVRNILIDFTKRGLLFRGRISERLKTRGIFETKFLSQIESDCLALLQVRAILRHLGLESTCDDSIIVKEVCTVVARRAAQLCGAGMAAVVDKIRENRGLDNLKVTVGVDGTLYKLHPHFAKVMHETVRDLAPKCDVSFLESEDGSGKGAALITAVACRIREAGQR

[4] = Toxicity in BALB/c nude mouse xenografted with human MDA-MB-231 cells assessed as body weight loss at 50 mg/kg, ip measured after 30 days; assay type: organism-based; details: in vivo, 720 h, time 30 day
[5] = biological target: T1, Hexokinase-2 (Homo sapiens); experiment: Induction of HK2 degradation in human MDA-MB-231 cells at 20 uM measured for 36 hrs by Western blot analysis; assay type: cell-based
[6] = test system: 4T1; experiment: Antitumor activity against mouse 4T1 cells implanted in BALB/c mouse model assessed as reduction in HK2 expression level at 50 mg/kg, ip measured after 25 days by Western blot analysis; assay type: functional, organism-based; details: time 25.0 day
[7] = test system: 4T1; experiment: Induction of pyroptosis in mouse 4T1 cells assessed as […] in cleaved caspase-3 level at 20 uM incubated for 36 hrs; assay type: functional, cell-based
[8] = Toxicity in BALB/c mouse implanted with mouse 4T1 cells assessed as effect on red blood cells at 50 mg/kg, ip measured after 25 days by routine blood test; assay type: organism-based; details: in vivo, 600 h, time 25 day
[9] = test system: MDA-MB-231; experiment: Induction of pyroptosis in human MDA-MB-231 cells assessed as increase in N-terminal GSDME level at 20 uM incubated for 36 hrs by Western blot analysis; assay type: functional, cell-based
[10] = Toxicity in BALB/c mouse implanted with mouse 4T1 cells assessed as pathological changes in liver at 50 mg/kg, ip measured after 25 days by Hematoxylin -eosin staining based analysis; assay type: organism-based; details: in vivo, 600 h, time 25 day
[11] = biological target: Protein cereblon/Hexokinase-2 (Mus musculus) (UniProt O08528+Q8C7D2); experiment: PROTAC activity at CRBN/HK2 in mouse 4T1 cells assessed as […] ternary complex formation at 10 uM incubated for 24 hrs in presence of MG132; assay type: cell-based
[12] = Toxicity in BALB/c mouse implanted with mouse 4T1 cells assessed as effect on hematocrit level at 50 mg/kg, ip measured after 25 days by routine blood test; assay type: organism-based; details: in vivo, 600 h, time 25 day
[13] = biological target: T2, Hexokinase-2 (Mus musculus); experiment: Induction of HK2 degradation in mouse 4T1 cells at 20 uM measured upto 18 hrs by Western blot analysis; assay type: cell-based
[14] = test system: 4T1; experiment: Antitumor activity against mouse 4T1 cells implanted in BALB/c mouse assessed as reduction in tumor volume at 50 mg/kg, ip measured after 23 days in presence of cisplatin; assay type: functional, organism-based; details: time 23.0 day
[15] = test system: MDA-MB-231; experiment: Antitumor immunity against human MDA-MB-231 cells xenografted in BALB/c nude mouse at 50 mg/kg, ip measured after 28 days; assay type: functional, organism-based; details: time 28.0 day
[16] = biological target: T1, Hexokinase-2 (Homo sapiens); experiment: Induction of HK2 degradation in human MDA-MB-231 cells assessed as decrease in Bcl-2 expression at 20 uM measured for 36 hrs by Western blot analysis; assay type: cell-based

Sequence of Protein cereblon/Hexokinase-2 (Mus musculus) (Q8C7D2 whole entry, looked up, one chain of several): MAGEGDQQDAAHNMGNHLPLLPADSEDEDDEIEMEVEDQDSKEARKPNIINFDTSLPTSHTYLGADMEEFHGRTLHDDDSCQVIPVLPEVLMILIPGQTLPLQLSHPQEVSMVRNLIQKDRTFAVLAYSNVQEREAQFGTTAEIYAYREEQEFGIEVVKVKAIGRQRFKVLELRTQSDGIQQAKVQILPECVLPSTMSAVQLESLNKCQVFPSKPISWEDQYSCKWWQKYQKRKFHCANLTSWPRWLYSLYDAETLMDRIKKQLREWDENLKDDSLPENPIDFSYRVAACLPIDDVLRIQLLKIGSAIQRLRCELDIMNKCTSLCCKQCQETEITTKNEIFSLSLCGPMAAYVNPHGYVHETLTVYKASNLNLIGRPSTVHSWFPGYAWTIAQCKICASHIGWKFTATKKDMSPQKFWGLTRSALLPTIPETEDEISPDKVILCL

O=C1CCC(N2C(=O)c3cccc(NCCCCNC(=O)c4nn(Cc5ccc(Cl)cc5Cl)c5ccccc45)c3C2=O)C(=O)N1 (stereo unspecified)
Activity [1]: Active
Activity [2]: Active
Activity [3]: Active
Activity [4]: Non-Toxic
Activity [5]: Active
Activity [6]: Active
Activity [7]: Active
Activity [8]: Non-Toxic
Activity [9]: Active
Activity [10]: Non-Toxic
Activity [11]: inactive
Activity [12]: Non-Toxic
Activity [13]: Active
Activity [14]: Active
Activity [15]: inactive
Activity [16]: Active
